{"source": "patent US11505521B2", "about": "(Biothea Pharma, Inc., priority 2018, dated 2022)", "key": {"physchem [1]": {"experiment": "physchem", "settings": "water; for Solubility: 25±2° C.", "experimental": "(§1) The tests were conducted using Sartorius balances (Model SQP), a Thermo HPLC (UltiMate 3000 System, UV Wavelength: 205 nm), and Phenomenex Luna columns (5 μm C18 (2), 4.6×250 mm). The column temperature was 40° C. and the autosampler temperature was room temperature. The injection volume was 5 μL.\n(§2) Mobile Phase A was prepared by weighing 4.0 g tetramethylammonium bisulfate (MERYER, Batch No. 77957139) and 1.1 sodium 1-heptasulfonate (Admas-beta, Batch No. P1343755), and transferring the materials to a flask. 2 mL of 0.1 mol/L EDTA solution (Brand: Sinopharm Chemical Reagent Co., Ltd., Batch No. 20150410) was added to the flask and the volume was adjusted to 950 mL using water. The solution was mixed and adjusted to a pH of 3.5 with 0.1N sodium hydroxide solution (Brand: Enox, Batch No. 20161201). Mobile Phase B was prepared using ethanol. The isocratic elution was used in a proportion of A/B of 85/15. The run time was 8 minutes.\nA standard solution was used comprising 10 mg of the standard dissolved in 10 mL of water. The test solution solutions were prepared and water was added at 25±2° C. Every 5 minutes, the solution was sonicated for 30 seconds. The dissolution was observed within 30 minutes to make sure the solution was saturated. The solution was filtered through a 0.45 μm membrane and the solution was diluted to test."}, "physchem [2]": {"experiment": "physchem", "experimental": "The tests were conducted using Sartorius balances (Model SQP) and a potentiometric titrator (Brand: Methrom, Model No. 905 Titrando). 0.17 g of the sample was weighed and transferred into a 50 mL volumetric flask with the remainder of the volume comprising deonized water. The solution was mixed. The solution was titrated with a 0.1 mol/L NaOH solution using a pH indicator to indicate the end point."}, "physchem [3]": {"experiment": "physchem", "settings": "n-octanol / pH 3.47 buffer", "experimental": "as §1, §2\nA hydrogen disodium phosphate solution was prepared by weighing 7.1 g of hydrogen disodium phosphate (Brand: Sinopharm Chemical Reagent Co., Ltd., Batch No. 20150910). A citric acid solution was prepared by weighing 5.25 g of hydrated citric acid (Brand: General-Reagent, Batch No. 5949-29-1) and dissolving it in 1000 mL of water. A pH 3.47 buffer solution was prepared by adjusting the pH of the hydrogen disodium phosphate solution to 3.47 with the citric acid solution. An n-octanol buffer solution was prepared by mixing 100 mL of n-octanol (Brand: Chinasun Specialty Products Co., Ltd., Batch No. 20160601) and 100 mL of the pH 3.47 buffer solution, vibrated for 24 hours, which sat for an hour to separate the n-octanol phase and the pH 3.47 buffer phase.\n10 mg of the sample was dissolved in 10 mL of the saturated n-octanol solution and mixed completely. 10 mL of the saturated pH 3.47 buffer solution was added and vortexed at 3000 r/min for 1 hour. 1 mL of solution was pipetted from the n-octanol and pH 3.47 phase after an hour. A standard solution was prepared containing 1 mg/mL of the standard in diluent. An LOQ solution was prepared from about 0.1% of the standard solution. An n-octanol phase solution was diluted with 1 mL of methanol to test. The pH 3.47 phase solution was injected directly. The partition coefficient was calculated using the following formula:\n[formula] wherein Co is the equilibrium concentration of solute in oil phase, and Cw is the equilibrium concentration of solute in water phase."}, "[4]": {"settings": "sublingual tablet of Example 3, 10 mg epinephrine base, receptor pH 7.4, 37° C.", "experimental": "The in-vitro permeability of the pharmaceutical compositions of Example 3 were tested. The tests were conducted using drug transdermal diffusion test instruments (Brand Huanghai, Model No. RJY-6B), Sartorius balances (Model SQP), an INESA pH meter (Model PHS-3E), a Thermo HPLC (UltiMate 3000 System, UV Wavelength: 205 nm), and Phenomenex Luna columns (5 μm C18 (2), 4.6×250 mm). The column temperature was 40° C. and the autosampler temperature was room temperature. The injection volume was 5 μL.\nas §2, with “using methanol.” for “using ethanol.”, “was 10” for “was 8”\nThe in vitro diffusion of epinephrine salts were evaluated using Franz cells with an OD of 20 mm and reservoir volume of 7 mL. Dialysis membranes (Spectra/Por® dialysis membranes with 1,000 Da MWCO) were used to simulate sublingual mucous membrane in the vitro permeability tests. The assay content of the active components was detected in receiving pools. A receptor chamber with a magnetic stirrer was filled with phosphate buffer solution (pH 7.4) as the diffusion medium. The water bath was set at 37° C., and water was circulated in the Franz cells.\nEach tablet was placed at the center of the donor chamber on the membrane at T0, and 2 mL of the artificial saliva (Brand: Biomart, Brand No. GL0305) was added to facilitate tablet disintegration and dissolution. Aliquots of 1 mL were withdrawn from the receptor chamber at 10, 30, 60, 90, and 120 min. The volumes withdrawn were replenished with fresh medium. Samples were transferred to HPLC vials for HPLC analysis."}}}
{"compound": "CNC[C@H](O)c1ccc(O)c(O)c1", "note": "[epinephrine malonate]", "values": [{"measurement": "Solubility", "setting": "physchem [1]", "value": 1142.7, "unit": "mg/mL"}, {"measurement": "pKa", "setting": "physchem [2]; titrated with 0.1 mol/L NaOH", "value": 5.47}, {"measurement": "LogP", "setting": "physchem [3]", "value": "−3.00"}, {"measurement": "Diffusion content (%) 120 min", "setting": "[4]", "value": 57.5, "unit": "%"}]}
{"compound": "epinephrine maleate", "values": [{"measurement": "Solubility", "setting": "physchem [1]", "value": 82.7, "unit": "mg/mL"}, {"measurement": "pKa", "setting": "physchem [2]; titrated with 0.1 mol/L NaOH", "value": 6.12}, {"measurement": "LogP", "setting": "physchem [3]", "value": "−3.01"}, {"measurement": "Diffusion content (%) 120 min", "setting": "[4]", "value": 63.5, "unit": "%"}]}
{"compound": "CNC[C@H](O)c1ccc(O)c(O)c1", "note": "[epinephrine bitartrate]", "values": [{"measurement": "solubility at 30 min", "setting": "physchem [1]; 25 °C, thermodynamic from solid", "value": 827, "unit": "mg/mL"}, {"measurement": "pKa", "setting": "physchem [2]; deionized water", "value": 4.2}, {"measurement": "LogP", "setting": "physchem [3]; pH 3.47", "value": -2.95}, {"measurement": "Diffusion content (%) 120 min", "setting": "[4]", "value": 67.8, "unit": "%"}]}
